Consider one molecule from ChEMBL document CHEMBL3351804, “Development of 2-aryl substituted quinazolin-4(3H)-one, pyrido[4,3-d]pyrimidin-4(3H)-one and pyrido[2,3-d]pyrimidin-4(3H)-one derivatives as microsomal prostaglandin E(2) synthase-1 inhibitors” (Bioorg Med Chem Lett, 2014).

The target in series [1] is T1, Prostaglandin E synthase (Homo sapiens, UniProt O14684).
T1 sequence (O14684 whole entry): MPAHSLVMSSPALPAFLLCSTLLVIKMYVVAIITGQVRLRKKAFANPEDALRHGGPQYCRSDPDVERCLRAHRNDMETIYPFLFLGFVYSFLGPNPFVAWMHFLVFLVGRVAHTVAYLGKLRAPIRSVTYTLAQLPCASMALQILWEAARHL
Nature of the series: Inhibition of human recombinant mPGES-1 expressed in CHO cells using PGH2 as substrate incubated for 10 mins prior to substrate addition measured after 1 min.

Series [2] deals with T1, Prostaglandin E synthase. Nature of the series: Inhibition of mPGES-1 in human A549 cells assessed as inhibition of IL-1beta-induced PGE2 production incubated for 30 mins prior to IL-1beta challenge measured after 18 to 24 hrs. The class given is cell-based.
In series [3] the target is T1, Prostaglandin E synthase. Nature of the series: Inhibition of mPGES-1 in human whole blood assessed as inhibition of LPS-induced PGE2 production after overnight incubation.
In series [4] the target is Prostaglandin G/H synthase 1 (Homo sapiens) (UniProt P23219). Nature of the series: Inhibition of COX1 in human U937 cells at 10 uM. The class given is cell-based. The conditions noted are these: U-937.
Chain of Prostaglandin G/H synthase 1 (Homo sapiens) (P23219 whole entry): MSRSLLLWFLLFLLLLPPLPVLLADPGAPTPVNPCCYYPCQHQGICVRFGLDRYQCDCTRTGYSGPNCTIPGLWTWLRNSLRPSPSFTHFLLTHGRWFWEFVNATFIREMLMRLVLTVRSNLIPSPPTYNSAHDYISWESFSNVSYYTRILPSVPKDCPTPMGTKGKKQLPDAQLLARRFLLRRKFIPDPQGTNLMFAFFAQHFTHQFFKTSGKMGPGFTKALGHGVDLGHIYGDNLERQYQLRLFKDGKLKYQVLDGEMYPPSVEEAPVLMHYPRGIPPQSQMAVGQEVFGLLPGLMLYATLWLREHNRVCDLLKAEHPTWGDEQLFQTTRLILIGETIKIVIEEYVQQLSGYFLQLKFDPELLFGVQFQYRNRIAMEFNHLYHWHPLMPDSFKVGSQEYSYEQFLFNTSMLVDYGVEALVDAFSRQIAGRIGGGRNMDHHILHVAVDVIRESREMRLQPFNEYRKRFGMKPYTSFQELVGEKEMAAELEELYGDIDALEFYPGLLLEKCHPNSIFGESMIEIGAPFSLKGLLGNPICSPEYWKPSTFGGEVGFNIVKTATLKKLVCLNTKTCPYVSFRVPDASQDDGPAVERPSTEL
The target in series [5] is T2, Prostaglandin G/H synthase 2 (Homo sapiens) (UniProt P35354).
T2 sequence (whole entry): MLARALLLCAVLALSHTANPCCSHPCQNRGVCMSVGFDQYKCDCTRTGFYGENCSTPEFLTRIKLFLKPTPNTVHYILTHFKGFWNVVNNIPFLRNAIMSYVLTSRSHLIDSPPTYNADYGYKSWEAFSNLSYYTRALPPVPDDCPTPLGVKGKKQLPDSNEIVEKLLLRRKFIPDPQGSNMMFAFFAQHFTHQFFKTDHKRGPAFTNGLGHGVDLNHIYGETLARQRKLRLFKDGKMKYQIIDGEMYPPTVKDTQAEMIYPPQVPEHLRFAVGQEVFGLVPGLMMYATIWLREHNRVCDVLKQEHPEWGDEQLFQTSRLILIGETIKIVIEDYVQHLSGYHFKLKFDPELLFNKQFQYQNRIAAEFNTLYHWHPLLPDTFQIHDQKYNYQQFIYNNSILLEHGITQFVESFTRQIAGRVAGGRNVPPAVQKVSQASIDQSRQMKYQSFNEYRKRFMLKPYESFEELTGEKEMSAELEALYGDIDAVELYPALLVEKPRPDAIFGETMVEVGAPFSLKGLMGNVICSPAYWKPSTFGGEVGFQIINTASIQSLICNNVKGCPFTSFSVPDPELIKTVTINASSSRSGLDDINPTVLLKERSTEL
Nature of the series: Inhibition of recombinant COX2 (unknown origin) at 10 uM.

In series [6] the target is Prostaglandin E synthase 2 (Homo sapiens) (UniProt Q9H7Z7). Nature of the series: Inhibition of recombinant mPGES-2 (unknown origin) at 10 uM.
Chain of Prostaglandin E synthase 2 (Homo sapiens) (Q9H7Z7 whole entry): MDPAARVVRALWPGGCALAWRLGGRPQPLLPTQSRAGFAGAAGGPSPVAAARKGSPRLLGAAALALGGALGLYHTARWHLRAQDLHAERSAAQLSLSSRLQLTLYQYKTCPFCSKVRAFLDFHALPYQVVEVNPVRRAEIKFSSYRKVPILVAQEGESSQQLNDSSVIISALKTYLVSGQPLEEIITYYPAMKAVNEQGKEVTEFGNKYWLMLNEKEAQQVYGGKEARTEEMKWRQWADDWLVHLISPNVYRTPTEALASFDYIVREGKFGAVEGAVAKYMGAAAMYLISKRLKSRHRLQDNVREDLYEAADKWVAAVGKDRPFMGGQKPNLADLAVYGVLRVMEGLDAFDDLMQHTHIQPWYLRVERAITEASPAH
The target of series [7] is T3, Prostaglandin E synthase 3 (Homo sapiens) (UniProt Q15185).
T3 sequence (whole entry): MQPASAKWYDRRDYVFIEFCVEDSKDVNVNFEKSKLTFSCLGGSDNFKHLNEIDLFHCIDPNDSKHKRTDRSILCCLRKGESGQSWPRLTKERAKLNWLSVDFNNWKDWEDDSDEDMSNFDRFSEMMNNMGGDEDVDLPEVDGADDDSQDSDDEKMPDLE
Nature of the series: Inhibition of recombinant cPGES (unknown origin) at 10 uM.

For series [8], the target named is Hematopoietic prostaglandin D synthase (Homo sapiens) (UniProt O60760). Nature of the series: Inhibition of recombinant PGDS (unknown origin) at 10 uM.
Chain of Hematopoietic prostaglandin D synthase (Homo sapiens) (O60760 whole entry): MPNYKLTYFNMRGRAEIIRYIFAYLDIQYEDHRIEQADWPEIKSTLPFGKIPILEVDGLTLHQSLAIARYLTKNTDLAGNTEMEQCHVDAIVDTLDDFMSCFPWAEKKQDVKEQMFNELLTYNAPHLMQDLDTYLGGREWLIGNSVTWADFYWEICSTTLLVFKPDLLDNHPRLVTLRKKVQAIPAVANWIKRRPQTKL
Series [9] has as its target T4, Thromboxane-A synthase (Homo sapiens) (UniProt P24557).
T4 sequence (whole entry): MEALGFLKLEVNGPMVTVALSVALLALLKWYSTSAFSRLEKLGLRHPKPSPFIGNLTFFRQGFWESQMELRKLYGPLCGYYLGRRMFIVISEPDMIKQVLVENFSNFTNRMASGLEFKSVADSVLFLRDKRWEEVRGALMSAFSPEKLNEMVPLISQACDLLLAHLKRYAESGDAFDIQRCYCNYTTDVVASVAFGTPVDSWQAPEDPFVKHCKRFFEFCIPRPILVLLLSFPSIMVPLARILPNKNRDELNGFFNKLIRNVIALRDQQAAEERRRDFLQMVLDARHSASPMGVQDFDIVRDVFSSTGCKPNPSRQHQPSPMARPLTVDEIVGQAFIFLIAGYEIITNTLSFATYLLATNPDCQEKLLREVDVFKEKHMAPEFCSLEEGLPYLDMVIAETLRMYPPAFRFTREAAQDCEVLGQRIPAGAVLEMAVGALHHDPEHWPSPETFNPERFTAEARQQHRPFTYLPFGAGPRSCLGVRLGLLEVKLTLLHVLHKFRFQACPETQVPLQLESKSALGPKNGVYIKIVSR
Nature of the series: Inhibition of recombinant TXAS (unknown origin) at 10 uM.

Series [10] concerns the target Prostaglandin F2-alpha receptor (Homo sapiens) (UniProt P43088). Nature of the series: Induction of recombinant PGF2-alpha (unknown origin) at 10 uM.
The target in series [11] is T5, Cytosolic phospholipase A2 (Homo sapiens) (UniProt P47712).
T5 sequence (whole entry): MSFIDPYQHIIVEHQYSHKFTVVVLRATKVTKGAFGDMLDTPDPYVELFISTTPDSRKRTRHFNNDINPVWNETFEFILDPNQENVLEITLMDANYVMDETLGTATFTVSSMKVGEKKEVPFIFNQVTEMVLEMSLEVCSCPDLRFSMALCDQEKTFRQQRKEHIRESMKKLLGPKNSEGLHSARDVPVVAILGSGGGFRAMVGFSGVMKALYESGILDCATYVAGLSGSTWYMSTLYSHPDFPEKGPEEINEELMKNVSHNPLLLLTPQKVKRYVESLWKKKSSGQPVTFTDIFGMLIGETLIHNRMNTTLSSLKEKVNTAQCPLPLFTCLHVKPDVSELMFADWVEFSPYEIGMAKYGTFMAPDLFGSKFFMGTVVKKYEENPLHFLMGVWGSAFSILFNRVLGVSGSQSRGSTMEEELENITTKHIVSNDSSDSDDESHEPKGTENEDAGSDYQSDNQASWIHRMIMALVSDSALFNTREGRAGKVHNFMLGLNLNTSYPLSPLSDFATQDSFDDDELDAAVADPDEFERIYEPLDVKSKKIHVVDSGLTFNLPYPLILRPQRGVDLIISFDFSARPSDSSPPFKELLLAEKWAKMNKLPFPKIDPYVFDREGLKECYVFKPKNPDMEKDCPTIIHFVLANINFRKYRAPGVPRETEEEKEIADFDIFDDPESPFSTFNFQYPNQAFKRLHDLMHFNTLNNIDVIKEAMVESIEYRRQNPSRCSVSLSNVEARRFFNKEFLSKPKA
Nature of the series: Inhibition of cPLA2 (unknown origin) at 10 uM.

The nature of series [12]: Inhibition of guinea pig recombinant mPGES-1. Set-up: species or system Cavia porcellus.
Series [13] is described as follows: Cmax in Sprague-Dawley rat at 10 mg/kg, po. Also on record: dose 10 mg/kg, route oral. The series is classed as ADME, organism-based. The note with it: in vivo.
Series [14] is described as follows: AUClast in Sprague-Dawley rat at 10 mg/kg, po. The note with it: plasma. Set-up: time 0 - last, dose 10 mg/kg, route oral. The class given is ADME, organism-based.
A short description of series [15]: Tmax in Sprague-Dawley rat at 10 mg/kg, po. The class given is ADME, organism-based. Set-up: dose 10 mg/kg, route oral. The conditions noted are these: in vivo.
The nature of series [16]: Stability in rat liver microsomes assessed as compound remaining after 60 mins. The conditions noted are these: read-out: Stability. The series is classed as ADME. In general terms: Microsomes from liver hold many membrane-bound enzymes, among them those of drug oxidation.

Chain of Prostaglandin F2-alpha receptor (Homo sapiens) (P43088 whole entry): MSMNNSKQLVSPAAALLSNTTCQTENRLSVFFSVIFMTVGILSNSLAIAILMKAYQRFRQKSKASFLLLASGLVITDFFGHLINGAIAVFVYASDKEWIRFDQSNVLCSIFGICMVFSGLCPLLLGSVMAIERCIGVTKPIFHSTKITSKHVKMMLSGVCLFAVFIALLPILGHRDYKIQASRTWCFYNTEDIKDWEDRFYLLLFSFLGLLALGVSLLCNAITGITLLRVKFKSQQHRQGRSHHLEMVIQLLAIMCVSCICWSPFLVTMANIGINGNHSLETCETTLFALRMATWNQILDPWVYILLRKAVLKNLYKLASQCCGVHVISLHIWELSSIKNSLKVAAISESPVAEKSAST

What is called IC50 is the concentration needed to halve the response being measured. As usually defined, the inhibition is how much of the control response was suppressed. Broadly, the Cmax is the highest concentration seen after dosing. As usually defined, the AUC(0-t) is the area under the concentration-time curve up to a stated or last time point. High values mean high exposure, low ones low exposure. The term Tmax denotes the time from dosing to the highest level. On to `CC(C)C(=O)NCc1ccc(Cl)c(-c2nc3cc(-c4ccc(C(F)(F)F)cc4)ncc3c(=O)[nH]2)c1`, for which the IC50 in series [1] came out at 5 nM; in [2], 5 nM; in [3], 376 nM; in [12] it was 12 nM. Moreover, the inhibition in series [4] stood at 2.74%; in [5], 4.87%; in [6], 0.02%; in [7], 18.7%; in series [8] it was 18.7%; in series [9] it was 10.5%. This molecule also registered an inhibition in series [11] of 12.1%. Also, the Activity in series [10] amounted to 186%. In series [13], this molecule gave a Cmax of 72 ng/mL. Besides, the AUC(0-t) in series [14] came out at 1230 ng·h/mL. In addition, in [15], the Tmax came to 24 h. The remaining at 1 h in [16] stood at 77%.
